Measurements reported in the supplement of paper PMC8967900.

How the values were obtained:
Assay in all cases: selective drug sensitivity score (sDSS, relative to normal bone marrow) (sDSS (score)); higher = more potent and effective on the cell line relative to normal bone marrow cells
Details in all cases: 72 h
COG-LL-394h = tested on: COG-LL-394h
PF-382 = tested on: PF-382
ALL-SIL = tested on: ALL-SIL
JURKAT = tested on: JURKAT
KASUMI-2 = tested on: KASUMI-2
KARPAS-45 = tested on: KARPAS-45
REH = tested on: REH
NALL-1 = tested on: NALL-1
DND-41 = tested on: DND-41
MHH-CALL-4 = tested on: MHH-CALL-4
P30-OHKUBO = tested on: P30-OHKUBO
KASUMI-9 = tested on: KASUMI-9
COG-LL-332h = tested on: COG-LL-332h
NALM-6 = tested on: NALM-6
HPB-ALL = tested on: HPB-ALL
MOLT-14 = tested on: MOLT-14
ALL-PO = tested on: ALL-PO
MN-60 = tested on: MN-60
LC4-1 = tested on: LC4-1
P12-ICHIKAWA = tested on: P12-ICHIKAWA
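Note: ALL cell lines in 384-well plates, five doses spanning 10,000-fold, each plate scaled between vehicle and 100 µmol/L benzalkonium chloride controls, sDSS an adapted area-under-curve metric.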

Row | Compound | selective drug sensitivity score (COG-LL-394h) | selective drug sensitivity score (PF-382) | selective drug sensitivity score (ALL-SIL) | selective drug sensitivity score (JURKAT) | selective drug sensitivity score (KASUMI-2) | selective drug sensitivity score (KARPAS-45) | selective drug sensitivity score (REH) | selective drug sensitivity score (NALL-1) | selective drug sensitivity score (DND-41) | selective drug sensitivity score (MHH-CALL-4) | selective drug sensitivity score (P30-OHKUBO) | selective drug sensitivity score (KASUMI-9) | selective drug sensitivity score (COG-LL-332h) | selective drug sensitivity score (NALM-6) | selective drug sensitivity score (HPB-ALL) | selective drug sensitivity score (MOLT-14) | selective drug sensitivity score (ALL-PO) | selective drug sensitivity score (MN-60) | selective drug sensitivity score (LC4-1) | selective drug sensitivity score (P12-ICHIKAWA)
1 | COc1cc2nccc(Oc3ccc(NC(=O)C4(C(=O)Nc5ccc(F)cc5)CC4)cc3)c2cc1OC [Cabozantinib] (top concentration 1000 nM) | 0.18 | -3.62 | 4.48 | -3.62 | -3.62 | -2.42 | 4.58 | -3.62 | -3.62 | 3.78 | -3.62 | -3.62 | -0.12 | -2.82 | -3.02 | 1.28 | 10.4 | -3.62 | -3.02 | -3.62
2 | CNc1nc(Nc2cn(C(C)(C)C#N)nc2C)ncc1C(F)(F)F [GNE-0877] (top concentration 1000 nM) | 0 | 0 | 0 | 0 | 1 | 0 | 0.8 | 0 | 0 | 0 | 0 | 0 | 0 | 0 | 0 | 0 | 0 | 0 | 0 | 0
3 | COc1cc2nccc(Oc3ccc(NC(=O)Nc4cc(C)on4)c(Cl)c3)c2cc1OC [Tivozanib] (top concentration 10000 nM) | 1.46 | 1.36 | 27 | 0.96 | 4.96 | 3.86 | 0.36 | -1.74 | 0.36 | -2.44 | 4.56 | 2.46 | 12.2 | 2.36 | -0.44 | 4.46 | 1.76 | 0.66 | 5.96 | 2.66
4 | CC(=O)[C@]1(O)Cc2c(O)c3c(c(O)c2[C@@H](O[C@H]2C[C@H](N)[C@H](O)[C@H](C)O2)C1)C(=O)c1ccccc1C3=O [Idarubicin] (top concentration 1000 nM) | 7.94 | 1.24 | 4.64 | 3.34 | 11.5 | -2.36 | 11.8 | -3.66 | 0.34 | 7.64 | 3.94 | 4.94 | 10 | 7.94 | 3.14 | 10.5 | 1.64 | -2.26 | 4.04 | 8.24
5 | FC(F)c1nc2ccccc2n1-c1nc(N2CCOCC2)nc(N2CCOCC2)n1 [ZSTK474] (top concentration 10000 nM) | 0.86 | 5.66 | 2.46 | 1.76 | 6.76 | 5.96 | 9.36 | 1.96 | -3.14 | 7.46 | 13.3 | 9.86 | 3.86 | 11.9 | -1.04 | -4.14 | 10.5 | 0.36 | -0.44 | 3.66
6 | CN(C)CC#Cc1ccc(OCCCc2sc(N3CCc4cccc(C(=O)Nc5nc6ccccc6s5)c4C3)nc2C(=O)O)c(F)c1 (top concentration 10000 nM) | 17 | 24.4 | 37.6 | 10.9 | 5.86 | 38.5 | -1.84 | 3.46 | 34 | 9.16 | -1.44 | -1.24 | 15.7 | 11.3 | 24.9 | 12.3 | 0.46 | -3.64 | 0.36 | 39.3
7 | CN(C)C(=N)NC(=N)N [Metformin] (top concentration 100000 nM) | -0.02 | -0.02 | -0.02 | -0.02 | -0.02 | -0.02 | 0.08 | -0.02 | 0.08 | -0.02 | -0.02 | -0.02 | -0.02 | -0.02 | -0.02 | -0.02 | -0.02 | -0.02 | -0.02 | -0.02
8 | CN1CCN(c2cc(C(=O)Nc3ccc4c(c3)-c3c(c(C(N)=O)nn3-c3ccc(F)cc3)CC4)c(Cl)cn2)CC1 [PHA-408] (top concentration 10000 nM) | -1.22 | 1.48 | 2.58 | 0.18 | 4.48 | 0.98 | 0.08 | -0.82 | 3.48 | 2.18 | 1.48 | 2.48 | 2.98 | 0.78 | -0.92 | -0.22 | 0.78 | -4.12 | 3.98 | -0.02
9 | C[C@H]1C[C@@H]2[C@H]([C@@H](O)C[C@@]3(C)[C@H]2CC[C@]3(O)C(=O)CO)[C@@]2(C)C=CC(=O)C=C12 [Methylprednisolone] (top concentration 10000 nM) | -2.3 | -1.6 | 10.9 | -2 | 11.6 | 16.4 | -2.3 | 24.8 | 31.6 | 31.6 | 18.6 | 4 | -0.7 | 22.4 | 5 | -2.3 | 34.1 | -1.5 | 5.9 | 19.8
10 | COC(=O)c1ccc2c(c1)[nH]c1ncnc(NCCCN3CCCCC3)c12 [UM729] (top concentration 10000 nM) | 4.34 | 1.24 | 1.44 | -0.06 | -0.06 | 2.34 | 0.24 | -0.06 | 0.64 | 0.44 | 1.44 | 2.44 | 1.94 | 0.34 | 0.64 | 3.94 | 2.54 | 1.04 | 1.54 | -0.06
11 | CCCCCOC(=O)Nc1nc(=O)n([C@@H]2O[C@H](C)[C@@H](O)[C@H]2O)cc1F [Capecitabine] (top concentration 10000 nM) | -0.06 | -0.06 | -0.06 | -0.06 | -0.06 | -0.06 | -0.06 | -0.06 | 1.84 | 0.04 | -0.06 | -0.06 | -0.06 | -0.06 | 0.64 | -0.06 | -0.06 | -0.06 | -0.06 | -0.06
12 | C[C@@H](C(=O)O)c1ccc(-c2ccccc2)c(F)c1 [Tarenflurbil] (top concentration 10000 nM) | -0.16 | -0.16 | -0.16 | -0.16 | -0.16 | -0.16 | -0.06 | 4.34 | 0.54 | -0.16 | -0.16 | 6.84 | 4.14 | 3.44 | -0.16 | -0.16 | -0.16 | -0.16 | 0.64 | -0.16
13 | COc1cc2nccc(Oc3ccc(NC(=O)NC4CC4)c(Cl)c3)c2cc1C(N)=O [Lenvatinib] (top concentration 2500 nM) | 0.26 | -0.24 | 5.56 | -0.24 | -0.14 | 0.16 | -0.24 | -0.24 | -0.24 | -0.24 | -0.14 | 1.36 | 1.66 | -0.24 | -0.24 | -0.14 | 3.86 | -0.24 | -0.24 | -0.24
14 | CC[C@]1(O)C[C@H]2CN(CCc3c([nH]c4ccccc34)[C@@](C(=O)OC)(c3cc4c(cc3OC)N(C=O)[C@H]3[C@@](O)(C(=O)OC)[C@H](OC(C)=O)[C@]5(CC)C=CCN6CC[C@]43[C@@H]65)C2)C1 [Vincristine] (top concentration 1000 nM) | 3.92 | -0.18 | 13.1 | 4.52 | 8.92 | 5.92 | 17.5 | -0.88 | 2.02 | -2.28 | 17.4 | 15.9 | 4.22 | 10.7 | 14.1 | 7.72 | 8.32 | -1.58 | 16.7 | 4.52
15 | CC[C@H](C)C(=O)O[C@H]1C[C@@H](C)C=C2C=C[C@H](C)[C@H](CC[C@@H]3C[C@@H](O)CC(=O)O3)[C@H]21 [Lovastatin] (top concentration 10000 nM) | -0.1 | 0 | 0.9 | 0.1 | -0.1 | 3 | 1 | -0.1 | -0.1 | -0.1 | 2.5 | 2.7 | 0.1 | -0.1 | -0.1 | -0.1 | -0.1 | -0.1 | 0.8 | 1.4
16 | NCCNc1ccc(NCCN)c2c1C(=O)c1ccncc1C2=O [Pixantrone] (top concentration 10000 nM) | -2.66 | -1.86 | -2.76 | -2.76 | -2.76 | -0.86 | 0.24 | -2.76 | -1.76 | -2.56 | -1.06 | -0.36 | -2.46 | -2.76 | -2.66 | -2.76 | -2.76 | -2.76 | -2.76 | -2.76
17 | CNC(=O)c1ccc(N2C(=S)N(c3ccc(C#N)c(C(F)(F)F)c3)C(=O)C2(C)C)cc1F [Enzalutamide] (top concentration 10000 nM) | -0.32 | 0.18 | -0.82 | 1.18 | -0.82 | -0.82 | -0.82 | -0.82 | 1.58 | -0.72 | -0.52 | -0.82 | -0.12 | 0.68 | 8.28 | -0.02 | 0.88 | -0.22 | 0.28 | -0.42
18 | CC(C)N(C[C@H]1O[C@@H](n2cnc3c(N)ncnc32)[C@H](O)[C@@H]1O)[C@H]1C[C@@H](CCc2nc3cc(C(C)(C)C)ccc3[nH]2)C1 [Pinometostat] (top concentration 1000 nM) | 0 | 0 | 0.2 | 0 | 0 | 0 | 0 | 0 | 0 | 0 | 0 | 0 | 0 | 0 | 0 | 0 | 0 | 0.3 | 0 | 0
